# Test results: US20240384268A1, “Oligonucleotides” (Hudson Institute of Medical Research, priority 2021, published 2024)
# d = 2'-deoxy (DNA); m = 2'-O-methyl
# Target: cGAS (Homo sapiens, UniProt Q8N884)
# Experiment: ISD70-driven IP-10 production in HT-29 cells, ELISA
# Assay type: cell-based
# Design: endogenous in cells
# Conditions: 187.5 nM ASO overnight, ISD70 24 h
# Sequence of cGAS (Q8N884 whole entry): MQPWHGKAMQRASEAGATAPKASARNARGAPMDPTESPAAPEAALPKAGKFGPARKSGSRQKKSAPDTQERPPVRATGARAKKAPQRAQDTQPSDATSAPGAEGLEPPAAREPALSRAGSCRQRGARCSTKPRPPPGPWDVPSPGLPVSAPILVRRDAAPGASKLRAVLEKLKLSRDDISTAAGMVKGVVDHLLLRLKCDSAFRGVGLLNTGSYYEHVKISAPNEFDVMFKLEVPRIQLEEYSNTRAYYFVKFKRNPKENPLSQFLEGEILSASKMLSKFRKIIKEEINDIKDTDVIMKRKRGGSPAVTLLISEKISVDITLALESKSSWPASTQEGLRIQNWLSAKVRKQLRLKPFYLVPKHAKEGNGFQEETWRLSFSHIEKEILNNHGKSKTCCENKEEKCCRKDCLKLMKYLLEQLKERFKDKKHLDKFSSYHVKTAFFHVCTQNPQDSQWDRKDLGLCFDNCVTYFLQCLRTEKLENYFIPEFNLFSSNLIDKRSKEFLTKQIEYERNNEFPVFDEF
substance,measurement,value
"mG*mA*mU*mG*mG*T*T*C*C*A*G*T*C*C*C*mU*mC*mU*mU*mC (GAUGGTTCCAGTCCCUCUUC; antisense; sugars from the 5' end m5 d10 m5, all phosphorothioate, methylation of C not given here) [[LINC-PINT]1497.1]",reduction of ISD70-dependent IP-10 production,25%
